Experiments:
Escherichia coli = test: Genotoxicity (SOSIP) on Escherichia coli PQ37 (SOS induction potential data, as a measure of genotoxicity); format: functional
Salmonella typhimurium [1] = test: Mutagenicity in Salmonella Typhimurium TA100 was determined; format: functional, Salmonella enterica subsp. enterica serovar Typhimurium
Salmonella typhimurium [2] = test: Mutagenicity in Salmonella Typhimurium TA98 was determined; format: functional, Salmonella enterica subsp. enterica serovar Typhimurium
Salmonella typhimurium [3] = test: Mutagenicity inSalmonella Typhimurium TA98 was determined; format: functional, Salmonella enterica subsp. enterica serovar Typhimurium
Salmonella typhimurium [4] = test: Mutagenicity inSalmonella Typhimurium TA100 was determined; format: functional, Salmonella enterica subsp. enterica serovar Typhimurium

Compound | Log SOSIP (Escherichia coli) | Log TA100 (Salmonella typhimurium [1]) | Log TA98 (Salmonella typhimurium [2]) | Log TA98 (Salmonella typhimurium [3]) | Log TA100 (Salmonella typhimurium [4])
COc1ccc2c(C)c([N+](=O)[O-])oc2c1 | 2.28 | 3.54 | – | – | –
Cc1ccc2c(ccc3oc([N+](=O)[O-])cc32)c1 | 3.95 | – | – | – | –
CCOC(=O)COc1ccc2c(ccc3oc([N+](=O)[O-])cc32)c1 | 3.18 | – | – | – | –
O=[N+]([O-])c1cc2ccccc2o1 | 1.53 | 1.54 | 1.3 | – | –
Cc1c([N+](=O)[O-])oc2cc3c(cc12)CCCC3 | 3.41 | 4.54 | 3.32 | – | –
Cc1c([N+](=O)[O-])oc2ccc3ccccc3c12 | 4.91 | 6.71 | 4.91 | – | –
Cc1c([N+](=O)[O-])oc2c1ccc1ccccc12 | 4.34 | – | – | – | –
COC(=O)Cc1ccc2c(ccc3oc([N+](=O)[O-])cc32)c1 | 3.18 | – | – | – | –
COc1ccc2ccc3oc([N+](=O)[O-])cc3c2c1 | 4.25 | 5.58 | 4.75 | – | –
COc1cccc2cc3cc([N+](=O)[O-])oc3cc12 | 2.96 | 3.07 | 3.44 | – | –
CC(C)c1c([N+](=O)[O-])oc2ccc3ccccc3c12 | 3.74 | – | – | – | –
COc1ccc2oc(-c3ccc([N+](=O)[O-])o3)cc2c1 | 3.08 | – | – | – | –
COc1ccc2ccc3oc([N+](=O)[O-])cc3c2c1OC | 4.2 | – | – | – | –
COc1ccc2cc3c(ccc4oc([N+](=O)[O-])cc43)cc2c1 | 4.77 | – | 4.86 | – | –
Cc1c([N+](=O)[O-])oc2ccc3c(c12)CCCC3 | 2.11 | 3.78 | 3.08 | – | –
O=[N+]([O-])c1cc2cc3c(cc2o1)CCCC3 | 2.25 | 3.11 | 2.63 | – | –
CCCCc1c([N+](=O)[O-])oc2ccc3ccccc3c12 | 4.28 | – | – | – | –
Cc1c([N+](=O)[O-])oc2ccc3cc(Br)ccc3c12 | 4.81 | – | – | – | –
O=[N+]([O-])c1cc2c3c(ccc2o1)CCCC3 | 2.08 | 2.81 | 2.11 | – | –
O=[N+]([O-])c1oc2ccc3ccccc3c2c1-c1ccccc1 | 4.43 | – | – | – | –
O=[N+]([O-])c1cc2cc3ccc4cccc5ccc(c2o1)c3c45 | 3.72 | – | – | – | –
CC(=O)c1ccc2c(ccc3oc([N+](=O)[O-])cc32)c1 | 3.72 | – | – | – | –
O=[N+]([O-])c1cc2c(ccc3ccccc32)o1 | 3.96 | – | – | 3.33 | 4.31

Compound | Log SOSIP (Escherichia coli) | Log TA100 (Salmonella typhimurium [1]) | Log TA98 (Salmonella typhimurium [2]) | Log TA98 (Salmonella typhimurium [3]) | Log TA100 (Salmonella typhimurium [4])
COc1ccc2c(ccc3oc([N+](=O)[O-])c(C)c32)c1 | 4.7 | – | – | – | –
COc1cc2oc([N+](=O)[O-])cc2c2ccccc12 | 3.86 | 3.59 | 3.28 | – | –
COc1cc2ccccc2c2cc([N+](=O)[O-])oc12 | 4.04 | 4.66 | 4.2 | – | –
COc1ccc2oc([N+](=O)[O-])cc2c1 | 1.89 | 2.8 | 1.74 | – | –
O=[N+]([O-])c1cc2c(ccc3cc(Br)ccc32)o1 | 4.64 | 4.16 | 3.61 | – | –
O=[N+]([O-])c1cc2cc(Cl)c3ccccc3c2o1 | 2.97 | 3.96 | 3.82 | – | –
O=[N+]([O-])c1oc2ccc3ccccc3c2c1CCO | 3.78 | – | 3.59 | – | –
O=[N+]([O-])c1cc2c(ccc3cc(O)ccc32)o1 | 3.58 | – | – | – | –
COc1ccc2ccc3oc([N+](=O)[O-])cc3c2c1Br | 4.46 | – | – | – | –
O=[N+]([O-])c1cc2cc3ccccc3c(Br)c2o1 | 3.04 | 2.67 | 3.31 | – | –
O=[N+]([O-])c1cc2c(ccc3cc4ccccc4cc32)o1 | 4.87 | – | 3.95 | – | –
O=[N+]([O-])c1cc2c(cc3ccc4cccc5ccc2c3c45)o1 | 5 | – | – | – | –
O=[N+]([O-])c1cc2ccc3c(c2o1)CCCC3 | 1.93 | 2.95 | 2.59 | – | –
CC(=O)Cc1c([N+](=O)[O-])oc2ccc3ccccc3c12 | 3.43 | – | – | – | –
COc1cc2cc([N+](=O)[O-])oc2c2ccccc12 | 3.45 | 4.26 | 3.25 | – | –
Cc1c([N+](=O)[O-])oc2cc3ccccc3cc12 | 3.34 | – | – | – | –
O=[N+]([O-])c1cc2ccc3cc4ccccc4cc3c2o1 | 4.08 | – | 3.88 | – | –
Cc1c([N+](=O)[O-])oc2ccccc12 | 1.2 | 3.7 | – | – | –
COc1ccc2c(ccc3oc([N+](=O)[O-])cc32)c1 | 4.23 | 5.31 | 4.9 | – | –
CC(=O)Oc1ccc2c(ccc3oc([N+](=O)[O-])cc32)c1 | 3 | – | – | – | –
COc1ccc2c(ccc3oc([N+](=O)[O-])cc32)c1Br | 3.43 | – | – | – | –
Cc1c([N+](=O)[O-])oc2c3c(ccc12)CCCC3 | 3.28 | 4.38 | 2.46 | – | –
CCc1c([N+](=O)[O-])oc2ccc3ccccc3c12 | 4.32 | – | 4.18 | – | –

Source: ChEMBL document CHEMBL1126635, “Mechanistic interpretation of the genotoxicity of nitrofurans (antibacterial agents) using quantitative structure-activity relationships and comparative molecular field analysis” (J Med Chem, 1993)
